For assay [1], the system named is P388. Kind of assay: Antitumor activity against mouse P388 cells after 48 hrs by MTT assay. Conditions: P388, 48 h. Type of assay: functional, cell-based. (In general: Formazan colour is commonly taken as a measure of viable cells.)
A short description of assay [2]: Antitumor activity against human MKN1 cells after 48 hrs by MTT assay. Type of assay: functional, cell-based. Conditions: MKN-1, 48 h.
The next assay relates to MKN-7. The assay can be described thus: Antitumor activity against human MKN7 cells after 48 hrs by MTT assay. Format: functional, cell-based. To be noted: MKN-7, 48 h.
The subject of the next assay is MKN-74. The assay can be described thus: Antitumor activity against human MKN74 cells after 48 hrs by MTT assay. Type of assay: functional, cell-based. Conditions: MKN-74, 48 h.
Assay [3] concerns P388. Kind of assay: Antitumor activity against mouse P388 cells implanted in CDF1 mouse assessed as decrease in weight change at 8.0 mg/kg, ip. Details: scale not given: the % may be the effect or the level left. Type of assay: functional. Conditions: route intraperitoneal.
The subject of assay [4] is P388. Kind of assay: Antitumor activity against mouse P388 cells implanted in CDF1 mouse assessed as decrease in weight change at 4.0 mg/kg, ip. Type of assay: functional. Details: scale not given: the % may be the effect or the level left. To be noted: route intraperitoneal.
Assay [5] has as its system P388. Kind of assay: Antitumor activity against mouse P388 cells implanted in CDF1 mouse assessed as decrease in weight change at 2.0 mg/kg, ip. Format: functional. Details: scale not given: the % may be the effect or the level left. Conditions: route intraperitoneal.
In assay [6] the test system is P388. Kind of assay: Antitumor activity against mouse P388 cells implanted in CDF1 mouse assessed as decrease in weight change at 1.0 mg/kg, ip. Details: scale not given: the % may be the effect or the level left. Type of assay: functional. To be noted: route intraperitoneal.
The test system of assay [7] is P388. Kind of assay: Antitumor activity against mouse P388 cells implanted in CDF1 mouse assessed as decrease in weight change at 0.5 mg/kg, ip. To be noted: route intraperitoneal. Details: scale not given: the % may be the effect or the level left. Type of assay: functional.
The subject of assay [8] is P388. Kind of assay: Antitumor activity against mouse P388 cells implanted in CDF1 mouse assessed as increase in life span at 8.0 mg/kg, ip. Format: functional. Conditions: route intraperitoneal.
Assay [9] has as its system P388. The assay can be described thus: Antitumor activity against mouse P388 cells implanted in CDF1 mouse assessed as increase in life span at 4.0 mg/kg, ip. Type of assay: functional. Conditions: route intraperitoneal.
In assay [10] the test system is P388. Kind of assay: Antitumor activity against mouse P388 cells implanted in CDF1 mouse assessed as increase in life span at 2.0 mg/kg, ip. To be noted: route intraperitoneal. Type of assay: functional.
Assay [11] concerns P388. The assay can be described thus: Antitumor activity against mouse P388 cells implanted in CDF1 mouse assessed as increase in life span at 1.0 mg/kg, ip. Conditions: route intraperitoneal. Type of assay: functional.
The subject of assay [12] is P388. The assay can be described thus: Antitumor activity against mouse P388 cells implanted in CDF1 mouse assessed as increase in life span at 0.5 mg/kg, ip. Type of assay: functional. Conditions: route intraperitoneal.

For orientation: IC50 means the concentration at which inhibition is half-maximal.

Converted amounts (≈) assume the structure as drawn.

For `CC(=O)O[C@@H]1C[C@@H]2[C@@]3(C)CCCC(C)(C)[C@@H]3CC[C@@]2(C)[C@@H]2CC=C3C(=O)O[C@@H](O)[C@@H]3[C@@]12C`, the IC50 in the assay on P388 [1] is more than 1 µg/mL.
The same measure, in the same setting: the same measure for `CC1(C)CCC[C@]2(C)[C@H]3C[C@@H](O)[C@]4(C)[C@H]5OC(=O)C=C5[C@@H](O)C[C@H]4[C@]3(C)CC[C@@H]12`: more than 1 µg/mL.
Regarding `CC1(C)C(=O)CC[C@]2(C)[C@H]3C[C@@H](O)[C@]4(C)[C@@H]5C(=CC[C@H]4[C@]3(C)CC[C@@H]12)CO[C@H]5O`, the 50% inhibitory concentration (IC50) came to 0.0145 µg/mL (≈ 0.036 µM) with P388 [1], 0.0577 µg/mL (≈ 0.143 µM) in assay [2], 0.056 µg/mL (≈ 0.139 µM) in the assay on MKN-7 and 0.0368 µg/mL (≈ 0.0914 µM) in the assay with MKN-74. Further, the Activity in the assay on P388 [3] worked out at 0.4%; in the assay with P388 [4], 0.9%; in the assay on P388 [5], 2.4%; in the assay with P388 [6], 2%; in the assay with P388 [7], 3%; in the assay with P388 [8], 74.4%. Moreover, the Activity turned out to be 51.2% with P388 [9], 31.4% in the assay with P388 [10], 32.6% in the assay on P388 [11] and 24.4% in the assay with P388 [12].
In the assay with P388 [1], `CC1(C)[C@@H](O)CC[C@]2(C)[C@H]3C[C@@H](O)[C@]4(C)[C@@H]5C(=CC[C@H]4[C@]3(C)CC[C@@H]12)CO[C@H]5O` displayed an IC50 of 0.25 µg/mL (≈ 0.618 µM).
`CC(=O)O[C@@H]1C[C@@H]2[C@@]3(C)CC[C@H](O)C(C)(C)[C@@H]3CC[C@@]2(C)[C@@H]2CC=C3CO[C@@H](O)[C@@H]3[C@@]12C` displayed an IC50 in the assay on P388 [1] of 0.505 µg/mL (≈ 1.13 µM).
As for `CC1(C)CCC[C@]2(C)[C@H]3C[C@@H](O)[C@]4(C)[C@@H]5C(=CC[C@H]4[C@]3(C)CC[C@@H]12)CO[C@H]5O`, the IC50 with P388 [1] is more than 1 µg/mL.
Still for that read-out and setting: the same measure for `C[C@@H]1C[C@H]1[C@H](C)C[C@@H](O)[C@@]1([C@H]2CC[C@H]3[C@@H]4CC[C@H]5CC(=O)CC[C@]5(C)[C@H]4C[C@@H](O)[C@]23C)CO1` [ARAGUSTEROL A]: 0.022 µg/mL (≈ 0.048 µM).
Same read-out and setting: the same measure for `C[C@H](CC[C@](C)(O)[C@H]1CC[C@H]2[C@@H]3CC[C@H]4CC(=O)CC[C@]4(C)[C@H]3C[C@@H](O)[C@@]21C)[C@H]1C[C@@H]1C` [ARAGUSTEROL B]: more than 3.3 µg/mL.
The same measure, in the same setting: the same measure for `C[C@H](C[C@@H](O)[C@](O)(CCl)[C@H]1CC[C@H]2[C@@H]3CC[C@H]4CC(=O)CC[C@]4(C)[C@H]3C[C@@H](O)[C@]12C)[C@H]1C[C@@H]1C` [ARAGUSTEROL C]: 0.041 µg/mL (≈ 0.0828 µM).

These data come from ChEMBL document CHEMBL1158669, “Cytotoxic scalarane sesterterpenes from a sponge, Hyrtios erecta” (J Nat Prod, 1998).
